Measurements as given in ChEMBL document CHEMBL3046228, “Synthesis of new bicyclo[4.1.0]heptane-2,4-dione derivatives and their herbicidal activity” (J Pestic Sci, 2007).

Key:
Setaria faberi = test: Herbicidal activity against Setaria faberi (Giant Foxtail) assessed as induction of plant damage applied through foliar spraying; type: functional
Zea mays = test: Phytotoxicity against Zea mays (maize) assessed as induction of plant damage applied through foliar spraying; type: organism-based; settings: in vivo, other
Digitaria sanguinalis = test: Herbicidal activity against Digitaria sanguinalis (hairy crabgrass) assessed as induction of plant damage applied through foliar spraying; type: functional
Abutilon theophrasti = test: Herbicidal activity against Abutilon theophrasti (velvetleaf) assessed as induction of plant damage applied through foliar spraying; type: functional
Amaranthus retroflexus = test: Herbicidal activity against Amaranthus retroflexus assessed as induction of plant damage applied through foliar spraying; type: functional

Row | Compound | ED80 (Setaria faberi) [gAi/ha] | ED0 (Zea mays) [gAi/ha] | ED80 (Digitaria sanguinalis) [gAi/ha] | ED80 (Abutilon theophrasti) [gAi/ha] | ED80 (Amaranthus retroflexus) [gAi/ha]
1 | COc1ccc(C(=O)C2C(=O)C[C@H]3C[C@H]3C2=O)c([N+](=O)[O-])c1 (relative stereo) | 125 | 31 | 125 | 125 | 500
2 | CSc1ccc(C(=O)C2C(=O)C[C@H]3C[C@H]3C2=O)c([N+](=O)[O-])c1 (relative stereo) | 250 | 125 | 63 | 16 | 31
3 | O=C1C[C@H]2C[C@H]2C(=O)C1C(=O)c1ccc(Cl)cc1[N+](=O)[O-] (relative stereo) | 125 | 16 | 63 | 16 | 63
4 | O=C1CCCC(=O)C1C(=O)c1ccc(Cl)cc1[N+](=O)[O-] | 500 | 500 | 250 | 31 | 125
5 | O=C1CC2CCCCC2C(=O)C1C(=O)c1ccc(Cl)cc1[N+](=O)[O-] (stereo not given) | 2000 | 500 | 500 | 500 | 2000
6 | CS(=O)(=O)c1ccc(C(=O)C2C(=O)C[C@H]3C[C@H]3C2=O)c(Cl)c1 (relative stereo) | 63 | 125 | 125 | 16 | 31
7 | O=C1C[C@H]2C[C@H]2C(=O)C1C(=O)c1ccc(C(F)(F)F)cc1[N+](=O)[O-] (relative stereo) | 63 | 31 | 63 | 16 | 63
8 | CCCC1CC(=O)C(C(=O)c2ccc(Cl)cc2[N+](=O)[O-])C(=O)C1 (stereo not given) | – | 125 | 500 | >2000 | 2000
9 | CC1CC(=O)C(C(=O)c2ccc(Cl)cc2[N+](=O)[O-])C(=O)C1 (stereo not given) | 16 | 63 | 31 | 125 | 125
10 | O=C1CC2CCCC2C(=O)C1C(=O)c1ccc(Cl)cc1[N+](=O)[O-] (stereo not given) | 500 | 63 | 250 | 500 | 500
11 | CS(=O)(=O)c1ccc(C(=O)C2C(=O)CCCC2=O)c(Cl)c1 [SULCOTRIONE] | 250 | 250 | 125 | 16 | 250
12 | CSCC1CC(=O)C(C(=O)c2ccc(Cl)cc2[N+](=O)[O-])C(=O)C1 (stereo not given) | 125 | 125 | 250 | 63 | 500
13 | CC1CCC(=O)C(C(=O)c2ccc(Cl)cc2[N+](=O)[O-])C1=O (stereo not given) | – | 125 | 63 | 63 | 250
14 | CCCCC1CC(=O)C(C(=O)c2ccc(Cl)cc2[N+](=O)[O-])C(=O)C1 (stereo not given) | – | 1000 | >2000 | 500 | >2000
15 | Cc1cc(S(C)(=O)=O)ccc1C(=O)C1C(=O)C[C@H]2C[C@H]2C1=O (relative stereo) | 250 | 250 | 250 | 16 | 63
16 | CC1(C)CC(=O)C(C(=O)c2ccc(Cl)cc2[N+](=O)[O-])C(=O)C1 | – | 500 | 250 | 125 | 2000
17 | CS(=O)(=O)c1ccc(C(=O)C2C(=O)C[C@H]3C[C@H]3C2=O)c([N+](=O)[O-])c1 (relative stereo) | 250 | 250 | 125 | 16 | 63
18 | CC1CC(=O)C(C(=O)c2ccc(Cl)cc2[N+](=O)[O-])C(=O)C1C (stereo not given) | 31 | 125 | 31 | 125 | 500
19 | COCC1CC(=O)C(C(=O)c2ccc(Cl)cc2[N+](=O)[O-])C(=O)C1 (stereo not given) | – | 125 | 500 | 125 | 125
